Assay results from US20220024921A1, “1,3,4-OXADIAZOLONE COMPOUND AND PHARMACEUTICAL” (NIPPON SHINYAKU CO., LTD., priority 2018, published 2022).

Assays:
[1] = molecular target: T1, PIM1 serine/threonine kinase (Homo sapiens, UniProt P11309); test: PIM1 serine/threonine kinase inhibitory effect; type: biochemical; conditions: PIM1 serine/threonine kinase activity; ATP 40 μM; 30° C., 30 minutes
T1 construct: purchased Carna Bioscience, Inc
Method in brief: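 Compounds were tested in duplicate from 0.01 to 10000 nM final against PIM1 kinase (0.15 μg/ml). The reaction ran for 30 minutes at 30° C with 40 μM ATP and 0.5 μM biotin-tagged substrate at pH 7.0. Phosphorylation was read by time-resolved FRET (OD665/OD620) after 1 h; IC50 by non-linear fit.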

[2] = molecular target: T2, PIM2 serine/threonine kinase (Homo sapiens, UniProt Q9P1W9); test: PIM2 serine/threonine kinase inhibitory effect; type: biochemical; conditions: PIM2 serine/threonine kinase activity; ATP 2 μM; 30° C., 30 minutes
T2 construct: purchased Carna Bioscience, Inc
T2 sequence (Q9P1W9 whole entry): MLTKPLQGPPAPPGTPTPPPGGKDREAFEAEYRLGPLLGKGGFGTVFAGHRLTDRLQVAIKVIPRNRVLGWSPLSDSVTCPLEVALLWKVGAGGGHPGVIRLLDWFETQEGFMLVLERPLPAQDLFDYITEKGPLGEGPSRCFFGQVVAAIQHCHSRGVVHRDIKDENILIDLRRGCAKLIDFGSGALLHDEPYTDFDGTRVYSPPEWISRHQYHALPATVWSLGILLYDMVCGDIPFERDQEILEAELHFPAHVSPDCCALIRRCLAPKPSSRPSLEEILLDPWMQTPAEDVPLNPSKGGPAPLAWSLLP
Procedure: (§1) Each test substance was prepared to 10 mM with dimethylsulfoxide (DMSO), and further diluted with DMSO so as to have concentrations of 1000, 300, 100, 30, 10, 3, 1, 0.3, 0.1, 0.03, 0.01, and 0.001 μM. Moreover, each dilution was further diluted 33.3-fold with an assay buffer to prepare a test substance solution. The composition of the assay buffer was 50 mM HEPES (pH 7.0), 0.02% NaN3, 0.01% Bovine Serum Albumin, 0.1 mM Orthovanadate, 1 mM Dithiothreitol, and 5 mM MgCl2.
(§2) 5 μL of each test substance solution was added to 384-well plates (n=2), and then 2.5 μL of a substrate solution (substrate 3-biotin (Cisbio Bioassays SAS), final concentration in the reaction solution: 0.5 μM) and 2.5 μL of an ATP solution (in the cases of PIM1, 2, 3, the final concentrations in the reaction solutions were 40, 2, and 10 μM, respectively) were added, 5 μL of each of PIM1, 2, 3 serine/threonine kinase solutions (Carna Bioscience, Inc., the final concentrations in the reaction solutions were 0.15, 1.6, and 0.25 μg/ml, respectively) was finally added, and the mixture was reacted at 30° C. for 30 minutes. The test substance concentrations in the reaction solutions are 10000, 3000, 1000, 300, 100, 30, 10, 3, 1, 0.3, 0.1, and 0.01 nM.
(§3) Thereafter, 15 μL of each detection solution (62.5 nM Streptavidin-XL665 (Cisbio Bioassays SAS), […] STK antibody-Cryptate (Cisbio Bioassays SAS), 50 mM HEPES (pH 7.0), 0.8 M KF, 0.1% Bovine Serum Albumin, 20 mM ethylenediaminetetraacetic acid) was added to each well. After stirring, the mixture was reacted at 30° C. for 1 hour. Absorbance (OD620, OD665) at 620 and 665 nm was measured with a microplate reader (SpectraMax M5e, Molecular Devices, LLC).
(§4) Non-linear regression analysis was performed by an SAS system (SAS Institute Inc.) using the ratio (OD665/OD620) of the measured absorbance to calculate a test substance concentration (IC50) that inhibits PIM1 serine/threonine kinase activity by 50%.
(§5) For the compounds with the following Example numbers, in addition to the above PIM1 serine/threonine kinase activity (IC50), test substance concentrations (IC50) that inhibit PIM2 serine/threonine kinase activity and PIM3 serine/threonine kinase activity by 50% were calculated.

[3] = molecular target: T3, PIM3 serine/threonine kinase (Homo sapiens, UniProt Q86V86); test: PIM3 serine/threonine kinase inhibitory effect; type: biochemical; conditions: PIM3 serine/threonine kinase activity; ATP 10 μM; 30° C., 30 minutes
T3 construct: purchased Carna Bioscience, Inc
Procedure: as §1, §2, §3, §4, §5

[4] = molecular target: PIM2 transgenic cells (Ba/F3) (Homo sapiens, UniProt Q9P1W9); test: Proliferation inhibitory effect on PIM2 transgenic cells; type: cell-based, mouse; conditions: proliferation inhibition, 72 hours, Cell Counting Kit-8, read-out: PIM2 IC50
Sequence of PIM2 transgenic cells (Ba/F3) (Q9P1W9 whole entry, stated change not applied): as the sequence (Q9P1W9 whole entry) above
Source text: (§6) Human PIM1, 2, and 3 genes were inserted into the multi-cloning sites of retrovirus expression vectors pMYs-IRES-GFP, respectively, to prepare gene transfer vectors. Then, each gene transfer vector was introduced into packaging cells PLAT-E derived from a human fetal kidney cell line in the logarithmic growth phase, using a transfection reagent (FuGENE6, Promega Corporation). Since the culture supernatant of PLAT-E after gene transfer contained virus particles for gene transfer, the culture supernatant was collected and used as a medium for gene transfer. The medium for gene transfer was added to a plate coated with RetroNectin, and the plate was incubated to attach the virus particles to the plate. Then, a mouse pro-B cell line Ba/F3 in the logarithmic growth phase was seeded on the plate and infected with the virus to prepare PIM1, 2, or 3 transgenic cells that proliferate in a PIM 1, 2, or 3-dependent manner. The expression of PIM1, 2, or 3 protein in each cell was confirmed by Western blotting.
(§7) Each test substance was prepared to 10 mM with dimethylsulfoxide (DMSO), and diluted with DMSO so as to have concentrations of 3000, 1000, 300, 100, 30, 10, 3, and 1 μM. Moreover, each dilution was further diluted 10-fold with distilled water to prepare a test substance solution.
(§8) PIM1, 2, 3-expressing cells were seeded on a 96-well plate, and each test substance solution prepared the next day was added such that final concentrations were 10000, 3000, 1000, 300, 100, 30, 10, 3, and 1 nM. 72 hours after the addition, 10 μL of Cell Counting Kit-8 (DOJINDO LABORATORIES) was added to each well. After incubation for 1 to 4 hours, absorbance OD450 at 450 nm was measured. In addition, absorption OD650 at 650 nm as a reference wavelength was measured.
(§9) OD450-OD650 for each condition was calculated, and then the inhibition rates when OD450-OD650 of negative control (DMSO only) and OD450-OD650 of Blank (without cells) were set to 0% and 100%, respectively, were calculated. Then, non-linear regression analysis was performed for logarithmic dose and inhibition rate using a two-parameter logistic model to estimate IC50 values.
(§10) For the compounds with the following Example numbers, in addition to the above proliferation inhibitory effect on PIM1 transgenic cells, the proliferation inhibitory effect on PIM2 transgenic cells and the proliferation inhibitory effect on PIM3 transgenic cells were calculated as IC50.

[5] = molecular target: PIM3 transgenic cells (Ba/F3) (Homo sapiens, UniProt Q86V86); test: Proliferation inhibitory effect on PIM3 transgenic cells; type: cell-based, mouse; conditions: proliferation inhibition, 72 hours, Cell Counting Kit-8, read-out: PIM3 IC50
Source text: as §6, §7, §8, §9, §10

T1 sequence (P11309 whole entry): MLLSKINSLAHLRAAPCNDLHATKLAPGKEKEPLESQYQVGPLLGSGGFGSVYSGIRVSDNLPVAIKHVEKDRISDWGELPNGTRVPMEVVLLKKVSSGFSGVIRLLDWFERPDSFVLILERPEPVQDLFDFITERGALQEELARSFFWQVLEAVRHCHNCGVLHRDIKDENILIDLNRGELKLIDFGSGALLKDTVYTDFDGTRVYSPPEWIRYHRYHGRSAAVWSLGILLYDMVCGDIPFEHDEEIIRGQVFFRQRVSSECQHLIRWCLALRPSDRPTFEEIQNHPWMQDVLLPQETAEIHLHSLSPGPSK

Row | SMILES | IC50 [1] | IC50 [2] | IC50 [3] | GI50 [4] | GI50 [5]
1 | C[C@H](Nc1cc(-c2n[nH]c(=O)o2)cc(F)c1C(F)(F)F)C1CCNCC1.Cl [Example 75, 5-[3-fluoro-5-{[(1S)-1-(piperidin-4-yl)ethyl]amino}-4-(trifluoromethyl)phenyl]-1,3,4-oxadiazol-2(3H)-one hydrochloride] | 1.4 nM | 2.3 nM | 10 nM | 620 nM | 120 nM
2 | C[C@H](Nc1cc(-c2n[nH]c(=O)o2)cc(F)c1OC(F)(F)F)C1CCNCC1.Cl [Example 202, 5-[3-fluoro-5-{[(1S)-1-(piperidin-4-yl)ethyl]amino}-4-(trifluoromethoxy)phenyl]-1,3,4-oxadiazol-2(3H)-one hydrochloride] | 1.5 nM |  |  | 790 nM | 78 nM
